Results published in patent US20210346359A1, “Use of CFTR Modulators For Treating Cerebrovascular Conditions” (Qanatpharma AG, priority 2018, published 2021).
Entries after “also recorded” stand apart in the source; their conditions may differ.

Tests used:
mice with heart failure = assay: MRI (FAIR) cerebral blood flow in heart failure mice; format: in vivo, mouse; conditions: HF mice, forebrain cortical, 3 mg/kg daily for 2 days
Description: As described previously (10-12), we utilized a flow-sensitive alternating inversion recovery (FAIR) magnetic resonance imaging (MRI) technique (13) to evaluate cerebral blood flow (CBF). During imaging, mice were immobilized with 1.8% isoflurane delivered through a nose cone. To maintain body temperature, the MRI is equipped with embedded tubes that convect water from an external heater-pump. Respiration was monitored using a pneumatic pillow (SA Instruments, Stonybrook, USA); isoflurane levels were adjusted to maintain respiration at approximately 50 breaths/minute.
FAIR images were obtained using a 7 Tesla micro-MRI system (BioSpec 70/30 USR, Bruker BioSpin, Ettlingen, Germany), including the B-GA12 gradient insert, 72 mm inner diameter linear volume resonator for RF transmission, and anteriorly placed head coil for RF reception. […] FAIR images were evaluated by manual prescription (MIPAV, NIH, Bethesda, MD; http://mipav.cit.nih.gov) of sub-hemispheric regions-of-interest (ROIs), termed ‘global’, and local ROIs corresponding to cortical and sub-cortical parenchyma in forebrain sections; cortical and paraventricular parenchyma in middle sections; and cortical and midbrain parenchyma in hindbrain sections. […]

CFTR = CFTR (Mus musculus, UniProt P26361); assay: CFTR protein in cerebral arteries of mice with heart failure; format: in vivo; parameters: Cerebral artery lysates were prepared by grinding artery samples in lysis buffer; from tissue; host or cells: cerebral arteries of male wild-type C57BL/6N mice (naïve, heart failure or subarachnoid hemorrhage models); conditions: 6 weeks post-ligation, 3 mg/kg daily for 2 days
Chain of CFTR (P26361 whole entry): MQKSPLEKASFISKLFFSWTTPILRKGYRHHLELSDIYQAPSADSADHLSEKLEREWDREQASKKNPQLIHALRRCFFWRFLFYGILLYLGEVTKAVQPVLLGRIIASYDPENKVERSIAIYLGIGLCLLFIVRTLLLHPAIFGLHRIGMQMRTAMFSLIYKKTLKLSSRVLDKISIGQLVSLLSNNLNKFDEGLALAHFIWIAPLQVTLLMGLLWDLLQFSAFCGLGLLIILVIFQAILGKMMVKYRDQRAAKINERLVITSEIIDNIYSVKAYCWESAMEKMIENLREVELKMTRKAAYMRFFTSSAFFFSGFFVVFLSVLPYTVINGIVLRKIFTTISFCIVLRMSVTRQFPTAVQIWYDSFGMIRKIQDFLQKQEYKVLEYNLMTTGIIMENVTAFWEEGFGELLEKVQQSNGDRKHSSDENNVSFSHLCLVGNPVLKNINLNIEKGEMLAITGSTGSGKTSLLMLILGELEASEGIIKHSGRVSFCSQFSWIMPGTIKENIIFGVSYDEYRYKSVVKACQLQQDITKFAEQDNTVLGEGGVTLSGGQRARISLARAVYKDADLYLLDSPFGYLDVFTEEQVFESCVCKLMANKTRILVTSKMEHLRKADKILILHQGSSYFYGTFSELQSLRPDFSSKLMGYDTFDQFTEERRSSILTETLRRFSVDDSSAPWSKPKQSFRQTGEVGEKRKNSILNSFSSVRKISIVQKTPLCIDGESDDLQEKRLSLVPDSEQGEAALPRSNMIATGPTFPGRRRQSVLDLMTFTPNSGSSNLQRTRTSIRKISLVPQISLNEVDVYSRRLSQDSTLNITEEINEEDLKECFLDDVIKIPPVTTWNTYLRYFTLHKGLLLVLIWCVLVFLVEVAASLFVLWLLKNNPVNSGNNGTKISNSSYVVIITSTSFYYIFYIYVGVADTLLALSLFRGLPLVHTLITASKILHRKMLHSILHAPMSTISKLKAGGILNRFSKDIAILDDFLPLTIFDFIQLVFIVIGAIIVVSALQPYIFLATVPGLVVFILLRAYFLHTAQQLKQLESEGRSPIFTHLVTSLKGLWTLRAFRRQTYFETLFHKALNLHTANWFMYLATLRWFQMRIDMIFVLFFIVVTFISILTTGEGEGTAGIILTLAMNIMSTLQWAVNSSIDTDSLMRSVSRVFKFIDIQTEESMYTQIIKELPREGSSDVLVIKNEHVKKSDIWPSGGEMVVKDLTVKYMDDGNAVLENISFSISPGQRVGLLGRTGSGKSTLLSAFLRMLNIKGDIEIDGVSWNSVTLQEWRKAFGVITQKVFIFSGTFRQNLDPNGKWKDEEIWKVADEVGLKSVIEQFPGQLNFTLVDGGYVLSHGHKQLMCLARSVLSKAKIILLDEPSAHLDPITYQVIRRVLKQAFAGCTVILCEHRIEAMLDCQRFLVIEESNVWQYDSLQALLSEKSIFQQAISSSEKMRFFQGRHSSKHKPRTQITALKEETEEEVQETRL
Method: Western blots for CFTR were completed as previously described (12, 18). Cerebral artery lysates were prepared by grinding artery samples in lysis buffer containing 50 mM Tris (pH 7.3), 150 mM NaCl, 2 mM […], 0.1% Triton-X-100, 0.1% […] and protease inhibitors; the same lysis buffer was used to prepare cell culture lysates. Following lysis, the samples were centrifuged (10 minutes at 13,500 g; at 4° C.) to remove insoluble material. Immediately prior to polyacrylamide electrophoresis, additional SDS (to 2% final concentration), glycerol (to 2% final concentration), β-mercaptoethanol (to 2% final concentration) and dithiothreitol (2 mM final concentration) were added. Proteins were separated electrophoretically on 7% acrylamide gels and transferred onto polyvinylidene difluoride (PVDF) membranes. […]
The primary antibodies were conjugated with either peroxidase-labeled donkey anti-rabbit IgG (GE Healthcare Amersham (Piscataway, USA) cat# NA934) or peroxidase-labeled goat anti-mouse IgG (GE Healthcare Amersham cat# NA931) secondary antibodies. […] Developed films were evaluated densitometrically using “Image J” software (freely available from the NIH); digital images were evaluated with Image Lab software (Bio-Rad). […]

SMILES: O=C(Nc1ncc(C(c2ccccc2Cl)N2CCC(O)C2)s1)C1(c2ccc3c(c2)OCO3)CC1 (centres unmarked) [C18, 1-(benzo[d][1,3]dioxol-5-yl)-N-(5-((2-chlorophenyl)(3-hydroxypyrrolidin-1-yl)methyl)thiazol-2-yl)cyclopropanecarboxamide]
- cerebral blood flow / cerebral perfusion (mice with heart failure): restores; also recorded: significantly improves
- cerebral artery CFTR protein expression in HF (CFTR): restores; also recorded: eliminates this reduction
